Data from patent US10900927B2, “Graphene field effect transistors for detection of ions” (UNIVERSITY OF SOUTH CAROLINA, priority 2018, dated 2021).

How the values were obtained:
[1] = test system: Ca2+-activated non-selective cation (NSC) channels on the T84 cells; test: K+ efflux of T84 cells activated with A23187, measured with the GISFET; type: cell-based, human; set-up: dose or concentration left out as unconfirmed; conditions: T84 cells in normal saline solution
From the text: In Example 2, GISFETs as contemplated by the present invention were fabricated as described in Example 1 and were then used to measure the K^+ efflux of human colonic epithelial cells. FIG. 9 is a schematic illustrating the use of the graphene ion sensitive field effect transistor (GISFET) of the present invention to determine the K^+ efflux from cells.
Specifically, human colonic T84 epithelial cells were used to investigate performance of the GISFET of the present invention. The Ca^2+-activated non-selective cation (NSC) channels on the T84 cells were activated with Ca^2+ ionophore A23187 ([…]), and then the corresponding K^+ efflux was detected and quantified by measuring the extracellular K+ ion concentration.
First, and referring to FIG. 9, cells 150 were plated on 25 millimeter diameter graphene-coated glass coverslips 148 and placed underneath of a specially designed mold 146 in a well plate 144. […]
Referring now to FIG. 10, after about 2 minutes of stabilization of the GISFET 101 in the buffer solution 152 in the well plate 144, the A23187 activating chemical was added to the well plate 144, which caused a consistent increase in current for about 20 minutes thereafter. […] By calculating the K^+ concentration based on the calibration data, the K^+ concentration could then be determined to be about 50 uM. […]

[2] = K+ versus Na+; cited from earlier work

SMILES | duration of consistent increase in GISFET current after addition [1] | extracellular K+ concentration from K+ efflux after activation ([1]; calculated from GISFET calibration data) | selectivity to K+ ions over Na+ ions (weaker valinomycin-Na+ complex) [2]
CNc1ccc2oc(C[C@H]3O[C@@]4(CC[C@H]3C)O[C@H]([C@H](C)C(=O)c3ccc[nH]3)[C@H](C)C[C@H]4C)nc2c1C(=O)O [A23187] | about 20 minutes | about 50 uM | 
CC(C)[C@@H]1NC(=O)[C@H](C)OC(=O)[C@@H](C(C)C)NC(=O)[C@@H](C(C)C)OC(=O)[C@H](C(C)C)NC(=O)[C@H](C)OC(=O)[C@@H](C(C)C)NC(=O)[C@@H](C(C)C)OC(=O)[C@H](C(C)C)NC(=O)[C@H](C)OC(=O)[C@@H](C(C)C)NC(=O)[C@@H](C(C)C)OC1=O [valinomycin] |  |  | 10,000 fold
